# From patent US20050197364A1, “Amide compounds as ion channel ligands and uses thereof” (priority 2003, published 2005)
# Legend:
# [1] = Plasma protein binding by equilibrium dialysis, human plasma; assay type: in vitro ADME; settings: human plasma in sodium citrate, pH 7.4, 37° C., read-out: human plasma protein binding (% Bound)
# Description: Membranes from Harvard/Amika with a molecular weight cutoff of 5,000 were rinsed with dH2O then placed in pH 7.4 PBS supplied by Gibco. The membranes were allowed to soak for 1 hour. A stock of the test article was pooled with Warfarin, Atropine at 2 mM in DMSO. The test article was then dosed into human plasma in sodium citrate, Rat Plasma, and Mouse Plasma to a final 10 μM concentration (0.5% DMSO v/v). The pre-soaked membranes were then placed into dialysis chambers. 500 μL of PBS was added to one side of the chamber, and 500 μL of the Matrix containing the test article was added to the other side of the chamber.
# The chambers were then placed into an enclosed, heated rocker, which was pre-warmed to 37° C. and allowed to reach equilibrium for at least 22 hours. After 22 hours both sides were sampled. 100 μL of the donor side was added to 500 μL of PBS. 100 μL of the PBS side was added to 20 μL of fresh matrix. Samples then were crashed with 1:1 Acetonitrile and centrifuged at 10,000 RPM for 10 minutes. […]
# Standards were prepared in a 1:5 plasma:PBS mixture at 5, 1.5, 0.5, 0.15, 0.05, 0.015 and 0.005 μM concentrations. […] Protein binding values were calculated as follows: % Bound=[(Concentration in Donor−Concentration in Receiver)/(Concentration in Donor)]×100. % Recovery=[(Concentration in donor+Concentration in Receiver)]/(Concentration in Normal Initial)]×100
# CYP1A2 = molecular target: T1, CYP1A2 (Homo sapiens, UniProt P05177); assay: Cytochrome p450 inhibition assessment, CYP1A2; assay type: in vitro ADME; settings: estimated
# T1 sequence (P05177 1-516): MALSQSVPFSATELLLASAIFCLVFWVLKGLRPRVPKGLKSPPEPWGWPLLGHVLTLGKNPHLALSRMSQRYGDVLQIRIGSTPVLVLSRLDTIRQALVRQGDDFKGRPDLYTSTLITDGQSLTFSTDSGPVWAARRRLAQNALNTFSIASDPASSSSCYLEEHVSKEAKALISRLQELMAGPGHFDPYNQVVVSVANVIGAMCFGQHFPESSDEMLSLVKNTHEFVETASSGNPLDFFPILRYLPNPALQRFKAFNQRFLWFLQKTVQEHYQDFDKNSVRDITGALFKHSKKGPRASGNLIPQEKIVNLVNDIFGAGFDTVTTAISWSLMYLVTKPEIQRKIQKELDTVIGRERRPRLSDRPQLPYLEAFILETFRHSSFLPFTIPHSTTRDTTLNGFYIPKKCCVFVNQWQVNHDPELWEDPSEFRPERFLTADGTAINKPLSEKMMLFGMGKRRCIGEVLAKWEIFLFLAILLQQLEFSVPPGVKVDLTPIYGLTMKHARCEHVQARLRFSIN
# Description: (§1) The ability of test compounds to inhibit five major human cytochrome p450 isozymes was evaluated. Cytochrome p450 inhibition assays were performed on 96-well microtiter assay plates according to the protocols described in Gentest P450 inhibition instruction manuals. The assays were performed in duplicate at 8 concentrations with the upper concentration of 100 μM followed by a 1:3 serial dilution. Reactions were initiated by the addition of 100 μL of enzyme/substrate mix to 100 μL of cofactor/serial dilution mix, and terminated by addition of 75 μL of a 4:1 acentonitrile: 0.5 M Tris base solution or by 2N NaOH for CYP3A4/DBF. Fluorescence was measured using a fluorescence plate reader (FLUOstar model 403, BMG Lab Technologies, Durham, N.C.). For reactions with inhibition greater than 50%, IC50 values were determined by fitting the data to the Hill equation using software GraphPad Prism (Version 4.02, GraphPad Software, San Diego, Calif.).
# CYP2D6 = CYP2D6 (Homo sapiens, UniProt P10635); assay: Cytochrome p450 inhibition assessment, CYP2D6; assay type: in vitro ADME; settings: concentration range tested, upper 100 μM
# Description: as §1
# [2] = Pharmacokinetic profile after intravenous and oral administration; assay type: in vivo; settings: male, Sprague-Dawley, rat, plasma, rats, IV 1 mg/kg and oral 5 mg/kg
# Description: The pharmacokinetic profile of Compound 18 was evaluated following intravenous and oral administration in rats. Sprague-Dawley male rats obtained from Charles River, San Diego, Calif. were acclimated for 24 hours. Compound 18 was formulated at a concentration of 0.5 mg/mL for IV administration at a 1 mg/kg dose and 1 mg/mL for oral administration at a 5 mg/kg dose. All animals were weighed before dosing. The body weight was used to calculate the actual dose for each animal. The intravenous dose was administered through the jugular vein catheter in less than 1 minute. The oral dose volume was 1.5 ml for all PO rats administered through oral […]. […] For PO dosing, blood samples were collected using a pre-heparinized syringe via the carotid artery catheter before dosing and at t=5, 15, 30, 60, 120, 180, 360, and 480 minutes post dosing. 250 uL of blood was obtained at each time point from each animal. Equal volumes of 0.9% normal saline were replaced to prevent dehydration. The whole blood samples were maintained on ice until centrifugation. Blood samples were centrifuged at 14,000 rpm for 10 minutes at 4° C., and the upper plasma layer was transferred into a clean vial and store at −80° C. The plasma was analyzed.
# Chain of CYP2D6 (P10635 whole entry): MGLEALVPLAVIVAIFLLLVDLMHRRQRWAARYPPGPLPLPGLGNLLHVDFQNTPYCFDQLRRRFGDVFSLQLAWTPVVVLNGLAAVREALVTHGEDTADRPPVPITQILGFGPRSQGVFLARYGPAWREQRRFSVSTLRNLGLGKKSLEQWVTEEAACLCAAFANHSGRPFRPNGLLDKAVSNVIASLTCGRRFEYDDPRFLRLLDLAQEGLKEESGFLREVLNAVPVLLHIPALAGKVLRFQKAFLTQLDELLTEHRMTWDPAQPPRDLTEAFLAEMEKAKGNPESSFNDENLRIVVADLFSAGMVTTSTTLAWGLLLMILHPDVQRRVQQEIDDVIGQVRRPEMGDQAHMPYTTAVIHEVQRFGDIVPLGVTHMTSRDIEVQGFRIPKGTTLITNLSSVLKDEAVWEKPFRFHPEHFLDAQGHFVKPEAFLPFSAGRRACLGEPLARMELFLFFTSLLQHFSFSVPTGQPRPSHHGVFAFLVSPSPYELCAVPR
smiles,measurement,setting,value
"O=C(Nc1ccc(C(F)(F)F)cc1)c1ccc(-c2ncccc2Cl)cc1 [Compound 18, 4-(3-Chloropyridin-2-yl)-N-(4-trifluoromethyl-phenyl)benzamide]","fraction unbound at 22 h, 10 µM",[1],< 0.002
same,IC50,CYP1A2,97.5 µM
same,inhibition of CYP2D6 activity,CYP2D6,did not significantly inhibit
same,Cmax,[2],1750 nM
same,Tmax,[2],3 h
same,clearance,[2]; read-out: Clearance (Cl) (converted),8.83 mL/min/kg
same,bioavailability,[2]; read-out: Oral Bioavailability (%F),30.1%
same,Vd,[2]; read-out: Volume of distribution (Vd),2.82 L/kg
same,half-life,[2]; read-out: half life (t1/2) (converted),3.71 h
